# In patent publication EP4566596A1, “ANTI-HBV AGENT” (RIKEN, priority 2022, dated 2024):
# Where “and” joins values, the source holds several entries; their conditions need not be identical. Equal values may be shown once. Read-outs that look alike come from different tables or passages of the source.
# Experiments:
# HBV DNA from Hep2.2.15.7 = assay: Anti-HBV activity using hepatitis B virus-producing cultured cells (HBV DNA in culture medium, qPCR); format: cell-based; details: 144 h, Hep2.2.15.7 cells, HBV DNA in culture medium after 6 days
# Experimental: Hep2.2.15.7 cells were spread in a 96-well plate (manufactured by TPP) at a density of 1 × 10^5 cells/well and cultured at 37°C and 5% CO2 using a culture medium containing DMEM/F12-GlutaMAX (manufactured by Thermo Fisher Scientific Inc.), 10% fetal bovine serum, 100 U/ml penicillin, 100 µg/ml streptomycin (manufactured by Thermo Fisher Scientific Inc.), and 5 µg/ml insulin (manufactured by Wako Pure Chemical). A test compound was added to the culture, and cells in three wells per condition were cultured. After 3 days, replacement with a medium containing the test compound was performed. After 6 days, cell viability was determined by quantitatively measuring intracellular mitochondrial activity. This was performed by measuring absorbance at 490 nm using Cell Proliferation Kit II (XTT) (manufactured by Roche) and a plate reader, EnSight (manufactured by PerkinElmer). At the same time, HBV-derived DNA was extracted and purified from the cell culture medium using Agencourt Genfind v2 (manufactured by Beckman-Coulter). […].
# pgRNA in PXB cells = assay: Anti-HBV activity using hepatitis B virus-infected primary cultured human hepatocytes (pgRNA, qPCR); format: cell-based; details: 7 days treatment; for effect of suppressing pgRNA: FIG. 3; for IC50: Hepatitis B virus, Hepatocyte, compound added after 28 days
# [1] = Mouse blood drug concentrations after oral administration (LC-MS/MS); format: in vivo, mice (ICR strain); details: ICR mice, plasma; for half-life: mouse, read-out: Elimination half-life
# Experimental: A compound was dissolved in a mixture of ethanol and polysorbate 80 (1:1) to make 10 mg/mL, and the resulting mixture was diluted with saline to 1 mg/mL and orally administered to mice (ICR strain, males, 6-10 weeks old) using a sonde. Blood was collected from the tail vein at 0.25, 0.5, 1, 2, 4, and 7 hours after administration, and plasma was obtained. An internal standard (ritonavir) was added to 10 µL of plasma, and a deproteinized sample was used for measurement. The measurement was performed according to a liquid chromatography-tandem mass spectrometry method using a Shimadzu LCMS-8050 system. The analytical conditions were as follows. A COSMOSIL 3C18-MS-II (2.0 ID × 50 mm; manufactured by Nacalai Tesque, Inc.) column was used. The column temperature was 40°C, and the autosampler temperature was 4°C. The mobile phase was a combination of Phase A: water/acetonitrile = 9/1 (v/v) and Phase B: acetonitrile, and the flow rate was 0.6 mL/min. 2 µL of the sample was injected. The gradient elution conditions were 0 to 0.9 min, 5% B; 0.9 to 2.1 min, 5 to 95% B; 2.1 to 5.5 min, 95% B; 5.5 to 5.51 min, 95 to 5% B; and 5.51 to 6.0 min, 5% B. The cleaning solution used was an isopropanol/methanol/acetonitrile/water = 1/1/1/1 (v/v/v/v, %) solution containing 0.1% formic acid. The ionization method was ESI, and the collected data was processed using LabSolutions software (Ver. 5.97 SP1, Shimadzu Corporation).
# [2] = format: in vitro ADME, human
# Experimental: (§1) Then, 50 µL of a NADPH regeneration system (85 mM D-glucose-6-phosphate, 10 mM β-nicotinamide adenine dinucleotide phosphate, oxidized form, and 10 U/mL glucose-6-phosphate dehydrogenase, all manufactured by Oriental Yeast Co., Ltd.) was added and mixed, and incubation was started. The incubation starting point was set to 0 minutes of reaction. At 0, 30, and 60 minutes of reaction, a 50-µL fraction of the reaction solution was collected into 200 µL of an ice-cooled 0.5 µM propranolol/acetonitrile solution, and the reaction was stopped. The obtained preparative solution was transferred to a protein removal plate (manufactured by Phenomenex), and after suction filtration through a manifold for 96-well plates, the filtrate was collected into a 96-well plate for collection. 100 µL of the collected filtrate was transferred to a 96-well plate and dried in a nitrogen-blowing high-speed parallel concentrator (Turbo Vap 96, manufactured by Biotage). After dissolving the dried sample with the initial mobile phase, the target compound was quantified by liquid chromatography-tandem mass spectrometry (LC-MS/MS). […] As technical replicates, the residual rate was calculated in two independent series for each compound to be evaluated for each animal species.
# (§2) The configuration of LC-MS/MS is as follows: high-performance liquid chromatography: Nexera X2 UPLC system (manufactured by Shimadzu), column: ACQUITY UPLC BEH C18 Column, 130A, 1.7 µm, 2.1 ×× 50 mm (manufactured by Waters), guard column: ACQUITY UPLC BEH C18 VanGuard Column, 130A, 1.7 µm, 2.1 ×× 50 mm (manufactured by Waters), mobile phase A: 0.1% aqueous formic acid solution/acetonitrile (9:1, v/v), mobile phase B: 0.1% aqueous formic acid solution/acetonitrile (1:9, v/v), gradient conditions: 0 to 1 min; 30% B, 1 to 1.5 min; 30 to 100% B, 1.5 to 3.5 min; 100% B, and 3.5 to 5 min; 30% B, and mass spectrometer: QTRAP 4500 (manufactured by AB Sciex) were used, a measurement target compound was ionized using an ESI method, and target ions were measured by multiple reaction monitoring. […]
# [3] = format: in vitro ADME, rat
# Experimental: as §1, §2
# [4] = format: in vitro ADME, mouse
# Experimental: as §1, §2
# cccDNA = assay: Effect of suppressing cccDNA in HBV-infected PXB cells (qPCR); format: cell-based, HBV genotype C; details: 7 days treatment, FIG. 3
# Experimental: Fresh human hepatocytes derived from PXB mice (PXB cells; manufactured by PhoenixBio Co., Ltd.) were spread in a collagen-coated 96-well plate (manufactured by FALCON) at a density of 0.7 × 10^5 cells/well, and cultured for 7 days using a dHCGM medium (manufactured in house) at 37°C and 5% CO2. HBV genotype C (manufactured by PhoenixBio Co., Ltd.) was added to the culture medium together with 4% PEG 8000 at a final density of 3.5 × 10^5 copies/well, and the medium was replaced after 1 day, and every third or fourth day thereafter. A test compound was added after 28 days, and cells in three wells per condition were cultured. Then, replacement with a medium containing the test compound was also performed after 3 or 4 days, and after 7 days, DNA was extracted and purified from the cells using Agencourt DNAdvance (manufactured by Beckman-Coulter). […]
# HBV genotype C = assay: Anti-HBV activity in hepatitis B virus-infected human hepatocyte chimeric mice (serum HBV DNA); format: in vivo, Human hepatocyte-transplanted chimeric mice (PXB mice); details: 10 mg/kg orally twice daily for 21 days, FIG. 4
# HBc T33N = HBc T33N (Hepatitis B virus genotype D subtype ayw, UniProt P03146, T33N); assay: HBV replication assay in HeLa cells, HBc T33N mutant; format: cell-based
# Sequence of HBc T33N (P03146 whole entry T33N, looked up): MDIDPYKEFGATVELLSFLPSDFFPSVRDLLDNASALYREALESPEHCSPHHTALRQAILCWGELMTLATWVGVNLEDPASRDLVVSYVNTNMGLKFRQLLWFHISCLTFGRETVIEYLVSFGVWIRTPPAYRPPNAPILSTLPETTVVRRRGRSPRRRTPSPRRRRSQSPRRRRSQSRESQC
# HBc (1-149) = assay: Capsid formation mechanism: gel filtration and electron microscopy of recombinant HBc (1-149); format: biochemical, HBV genotype C
# Experimental: An expression plasmid in which the ubiquitin-like protein SUMO serving as a tag was fused to the sequence of the association domain (1-149) of HBc of genotype C was prepared and introduced into the Escherichia coli KRX strain, and a recombinant protein was expressed and purified. After the recombinant HBc (1-149) was cleaved with a SUMO protease to remove the tag, the dimer peak was separated by gel filtration and used for subsequent analyses. […]
# This behavior is similar to that of the compound CBT-078. […] A fraction was collected from the elution peak at the position corresponding to the capsid, and a negatively stained image was captured using an electron microscope.
# HBV = assay: Effect of suppressing HBsAg, HBeAg and pgRNA in primary cultured human hepatocytes infected with HBV; format: cell-based; details: concentrations of 0.01 to 100 mM, FIG. 2
# Experimental: Primary cultured human hepatocytes infected with HBV were treated with the compound CBT-289 or Entecavir (ETV) at concentrations of […], and the HBsAg and HBeAg levels in the medium and the pgRNAlevel in the cells were measured.
smiles,measurement,setting,value
"Cc1ccccc1NC(=O)c1cccc(C(=O)Nc2ccc(F)cc2)c1F [CBT-078, reference compound]",IC50,HBV DNA from Hep2.2.15.7,270 nM
same,effect of suppressing pgRNA,pgRNA in PXB cells,did not have the effect of suppressing pgRNA
same,Maximum blood concentration,[1],710 ng/mL
same,Time to reach maximum blood concentration,[1],30 min
same,half-life,[1]; in vivo,0.533 h
same,residual rate,"[2]; Human liver microsomes, 0 min (baseline)",100%
same,residual rate,"[2]; Human liver microsomes, 30 min",77%
same,residual rate,"[2]; Human liver microsomes, 60 min",60% and 58%
same,residual rate,"[3]; Rat liver microsomes, 0 min (baseline)",100%
same,residual rate,"[3]; Rat liver microsomes, 30 min",53% and 52%
same,residual rate,"[3]; Rat liver microsomes, 60 min",35% and 34%
same,residual rate,"[4]; Mouse liver microsomes, 0 min (baseline)",100%
same,residual rate,"[4]; Mouse liver microsomes, 30 min",6%
same,residual rate,"[4]; Mouse liver microsomes, 60 min",0%
same,effect of suppressing cccDNA,cccDNA,did not have the effect of suppressing pgRNA or cccDNA
Cc1cc(C#N)ccc1NC(=O)c1cccc(C(=O)Nc2ccc(F)cc2)c1F [CBT-209],IC50,HBV DNA from Hep2.2.15.7,39 nM
same,Maximum blood concentration,[1],250 ng/mL
same,Time to reach maximum blood concentration,[1],120 min
same,half-life,[1]; male,13.8 h
same,residual rate,"[2]; human, 0 min, 1 µM, pH 7.4",100%
same,residual rate,"[3]; rat, 0 min, 1 µM, pH 7.4",100%
same,residual rate,"[4]; mouse, 0 min, 1 µM, pH 7.4",100%
same,HBV DNA level in the serum,HBV genotype C,preferentially reduced compared with GLS4 or the vehicle
same,antiviral activity against viruses with the HBc T33N mutation,HBc T33N,have antiviral activity even against viruses with the HBc T33N mutation
same,association state of HBc (1-149) by gel filtration,"HBc (1-149); 11 µM HBc (1-149), 15 µM compound, overnight incubation at 4°C, FIG. 5",the elution peak shifted to the position corresponding to the capsid
same,stability of the capsids formed,"HBc (1-149); 7 days of incubation, gel filtration and electron microscope",stable even after 7 days of incubation
CCCCNC(=O)c1ccc(NC(=O)c2cccc(C(=O)Nc3ccc(F)cc3)c2F)c(C)c1 [CBT-289],IC50,HBV DNA from Hep2.2.15.7,74 nM
same,effect of suppressing pgRNA,pgRNA in PXB cells,suppressed cccDNA and pgRNA in a concentration-dependent manner
same,IC50,pgRNA in PXB cells,2480 nM
same,HBeAg level in the medium,HBV,"suppressed HBsAg, HBeAg, and pgRNAin a concentration-dependent manner"
same,HBsAg level in the medium,HBV,"suppressed HBsAg, HBeAg, and pgRNAin a concentration-dependent manner"
same,pgRNA level in the cells,HBV,"suppressed HBsAg, HBeAg, and pgRNAin a concentration-dependent manner"
same,effect of suppressing cccDNA,cccDNA,suppressed cccDNA and pgRNA in a concentration-dependent manner
CCCNC(=O)c1ccc(NC(=O)c2cccc(C(=O)Nc3ccc(F)cc3)c2F)c(C)c1 [CBT-383],IC50,HBV DNA from Hep2.2.15.7,910 nM
same,IC50,pgRNA in PXB cells,2330 nM
CCNC(=O)c1ccc(NC(=O)c2cccc(C(=O)Nc3ccc(F)cc3)c2F)c(C)c1 [CBT-384],IC50,HBV DNA from Hep2.2.15.7,75 nM
same,IC50,pgRNA in PXB cells,16500 nM
Cc1cc(C(=O)NC(C)(C)C)ccc1NC(=O)c1cccc(C(=O)Nc2ccc(F)cc2)c1F [CBT-385],IC50,HBV DNA from Hep2.2.15.7,180 nM
same,IC50,pgRNA in PXB cells,> 100000 nM
C=CCCNC(=O)c1ccc(NC(=O)c2cccc(C(=O)Nc3ccc(F)cc3)c2F)c(C)c1 [CBT-387],IC50,HBV DNA from Hep2.2.15.7,41 nM
same,IC50,pgRNA in PXB cells,3410 nM
CCCCCCNC(=O)c1ccc(NC(=O)c2cccc(C(=O)Nc3ccc(F)cc3)c2F)c(C)c1 [CBT-388],IC50,HBV DNA from Hep2.2.15.7,180 nM
same,IC50,pgRNA in PXB cells,4590 nM
CCCCCCCCCCNC(=O)c1ccc(NC(=O)c2cccc(C(=O)Nc3ccc(F)cc3)c2F)c(C)c1 [CBT-389],IC50,HBV DNA from Hep2.2.15.7,470 nM
same,IC50,pgRNA in PXB cells,100000 nM
Cc1cc(C(=O)NCCC(C)C)ccc1NC(=O)c1cccc(C(=O)Nc2ccc(F)cc2)c1F [CBT-390],IC50,HBV DNA from Hep2.2.15.7,61 nM
same,IC50,pgRNA in PXB cells,730 nM
CCC[C@@H](C)NC(=O)c1ccc(NC(=O)c2cccc(C(=O)Nc3ccc(F)cc3)c2F)c(C)c1 [CBT-391],IC50,HBV DNA from Hep2.2.15.7,95 nM
same,IC50,pgRNA in PXB cells,2480 nM
"C=C1[C@H](CO)[C@@H](O)C[C@@H]1n1cnc2c(=O)[nH]c(N)nc21 [ETV, Entecavir, reference compound]",HBeAg level in the medium,HBV,did not suppress them
same,HBsAg level in the medium,HBV,did not suppress them
same,pgRNA level in the cells,HBV,did not suppress them
